The results in this text go back to paper PMC5076529, “Binding Sites for Acylated Trehalose Analogs of Glycolipid Ligands on an Extended Carbohydrate Recognition Domain of the Macrophage Receptor Mincle” (The Journal of Biological Chemistry, 2016).

Test [1] concerns the target T1, mincle minimal CRD (bovine) (Bos taurus, UniProt E1BHM0, I174T).
T1 construct: gene CLEC4E; minimal C-type carbohydrate recognition domain, N-terminally truncated, lacks disulfide 4; E. coli, renatured from inclusion bodies
T1 sequence (E1BHM0 79-211 I174T): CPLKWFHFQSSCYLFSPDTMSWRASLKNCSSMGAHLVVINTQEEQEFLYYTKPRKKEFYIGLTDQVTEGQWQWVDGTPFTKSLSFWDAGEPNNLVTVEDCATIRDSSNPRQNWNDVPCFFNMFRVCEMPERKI
The test is described as follows: competition with […]-mannose-BSA on immobilized CRD. The class given is binding.

Test [2] concerns the target T2, mincle extended CRD (bovine) (Bos taurus, UniProt E1BHM0, I174T).
T2 construct: gene CLEC4E; extended CRD from Glu-64 to C terminus with one extra N-terminal Ala, includes disulfide 4; E. coli BL21(DE3) inclusion bodies, renatured, trehalose-Sepharose
T2 sequence (E1BHM0 64-211 I174T): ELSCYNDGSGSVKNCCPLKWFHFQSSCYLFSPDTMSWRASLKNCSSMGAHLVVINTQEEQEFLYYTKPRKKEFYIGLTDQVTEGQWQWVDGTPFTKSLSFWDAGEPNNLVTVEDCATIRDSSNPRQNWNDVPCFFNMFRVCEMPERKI
The test is described as follows: X-ray crystallography, […] Å. Conditions: pH 5.6 reservoir; primary sugar-binding site, conserved Ca2+; second substituent not visible.

Test [3] has as its target T2, mincle extended CRD (bovine). The test is described as follows: X-ray crystallography, […] Å. Conditions: pH 5.5 reservoir; primary sugar-binding site, conserved Ca2+.
Test [4] concerns the target T1, mincle minimal CRD (bovine). The test is described as follows: X-ray crystallography, […] Å. Conditions: pH 5.6; primary sugar-binding site, conserved Ca2+; acyl chain only partly visible.

`CCCCCC(=O)OC[C@H]1O[C@H](O[C@H]2O[C@H](COC(=O)CCCCC)[C@@H](O)[C@H](O)[C@H]2O)[C@H](O)[C@@H](O)[C@@H]1O` [Dihexanoate]: the Ki (in general, a dissociation constant, usually derived from enzyme kinetics or from competition with a known ligand) in test [1] was determined as 8.2 ± 0.3 µM.
Consider `CC(C)C(=O)OC[C@H]1O[C@H](O[C@H]2O[C@H](COC(=O)C(C)C)[C@@H](O)[C@H](O)[C@H]2O)[C@H](O)[C@@H](O)[C@@H]1O` [Diisobutyrate], for which the Ki in test [1] amounted to 370 ± 40 µM.
In the case of `CCCCC(=O)OC[C@H]1O[C@H](O[C@H]2O[C@H](COC(=O)CCCC)[C@@H](O)[C@H](O)[C@H]2O)[C@H](O)[C@@H](O)[C@@H]1O` [Divalerate], the affinity in test [1], expressed as Ki, was 59 ± 2 µM.
`CCCCCCCCCC(=O)OC[C@H]1O[C@H](O[C@H]2O[C@H](CO)[C@@H](O)[C@H](O)[C@H]2O)[C@H](O)[C@@H](O)[C@@H]1O` [Monodecanoate] had an inhibition constant Ki in test [1] of 5.1 ± 0.6 µM.
In test [1], `CCCCCCCCCCCC(=O)OC[C@H]1O[C@H](O[C@H]2O[C@H](CO)[C@@H](O)[C@H](O)[C@H]2O)[C@H](O)[C@@H](O)[C@@H]1O` [Monododecanoate] yielded a Ki of 3.1 ± 0.5 µM.
On the same count and under the same terms, the result for `CCCCCCC(=O)OC[C@H]1O[C@H](O[C@H]2O[C@H](CO)[C@@H](O)[C@H](O)[C@H]2O)[C@H](O)[C@@H](O)[C@@H]1O` [Monoheptanoate] reads 137 ± 18 µM.
Take `COc1cccc(C(=O)OC[C@H]2O[C@H](O[C@H]3O[C@H](COC(=O)c4cccc(OC)c4OC)[C@@H](O)[C@H](O)[C@H]3O)[C@H](O)[C@@H](O)[C@@H]2O)c1OC` [brartemicin analog]: the “X-ray crystallography, 1.80 Å” value in test [2] is “The structure of mincle bound to a synthetic analog of brartemicin was also examined”.
Turning to `Cc1cc(O)cc(O)c1C(=O)OC[C@H]1O[C@H](O[C@H]2O[C@H](COC(=O)c3c(C)cc(O)cc3O)[C@@H](O)[C@H](O)[C@H]2O)[C@H](O)[C@@H](O)[C@@H]1O` [brartemicin], the “X-ray crystallography, 2.20 Å” value in test [3] is recorded as “structures of the extended CRD bound to either natural brartemicin or a synthetic analog”.
`CCCC(=O)OC[C@H]1O[C@H](O[C@H]2O[C@H](CO)[C@@H](O)[C@H](O)[C@H]2O)[C@H](O)[C@@H](O)[C@@H]1O` [trehalose monobutyrate]: the “X-ray crystallography, 2.10 Å” value in test [4] was “Co-crystals of trehalose monobutyrate and the CRD of mincle were examined”.
